Measurements from ChEMBL document CHEMBL1201862, “PubChem BioAssay data set” (2004).
Values joined by “and” are separate entries in the source; they are usually repeats but may differ in a detail not shown here. Identical values can stand only once. Active and inactive are the calls of the source.

Assays:
Format in all cases: functional
[1] = Shn3 3'UTR reporter inhibitors, dose response, cell-based, Clone20 osteoblasts, firefly luciferase, cherry-picked (AID 624132);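 also: firefly luciferase luminescence from reporter carrying the Shn3 3'UTR in osteoblasts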
Cysteine protease ATG4B = target: T1, Cysteine protease ATG4B (Homo sapiens, UniProt Q9Y4P1);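 also: Fluorescence-based dose-response confirmation assay measuring inhibition of ATG4B activity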
T1 sequence (Q9Y4P1 whole entry): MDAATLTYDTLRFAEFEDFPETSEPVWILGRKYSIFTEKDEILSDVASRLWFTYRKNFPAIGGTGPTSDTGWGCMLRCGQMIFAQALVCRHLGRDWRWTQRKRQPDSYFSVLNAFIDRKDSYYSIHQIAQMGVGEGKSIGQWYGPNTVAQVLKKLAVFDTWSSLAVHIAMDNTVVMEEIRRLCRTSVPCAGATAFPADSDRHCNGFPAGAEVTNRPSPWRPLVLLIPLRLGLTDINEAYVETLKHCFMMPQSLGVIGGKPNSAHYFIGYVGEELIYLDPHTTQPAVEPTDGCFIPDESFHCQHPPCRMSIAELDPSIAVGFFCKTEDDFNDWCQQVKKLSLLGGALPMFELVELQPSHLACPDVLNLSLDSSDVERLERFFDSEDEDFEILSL

Protein RecA = target: T2, Protein RecA (Mycobacterium tuberculosis, UniProt P9WHJ3); test: Fluorescence Cell-Free Homogeneous Dose Retest to Identify Inhibitors of RecA-Intein Splicing Activity. [Related pubchem assays (depositor defined):AID2097, AID2223, AID489010, AID492950]
T2 sequence (P9WHJ3 whole entry): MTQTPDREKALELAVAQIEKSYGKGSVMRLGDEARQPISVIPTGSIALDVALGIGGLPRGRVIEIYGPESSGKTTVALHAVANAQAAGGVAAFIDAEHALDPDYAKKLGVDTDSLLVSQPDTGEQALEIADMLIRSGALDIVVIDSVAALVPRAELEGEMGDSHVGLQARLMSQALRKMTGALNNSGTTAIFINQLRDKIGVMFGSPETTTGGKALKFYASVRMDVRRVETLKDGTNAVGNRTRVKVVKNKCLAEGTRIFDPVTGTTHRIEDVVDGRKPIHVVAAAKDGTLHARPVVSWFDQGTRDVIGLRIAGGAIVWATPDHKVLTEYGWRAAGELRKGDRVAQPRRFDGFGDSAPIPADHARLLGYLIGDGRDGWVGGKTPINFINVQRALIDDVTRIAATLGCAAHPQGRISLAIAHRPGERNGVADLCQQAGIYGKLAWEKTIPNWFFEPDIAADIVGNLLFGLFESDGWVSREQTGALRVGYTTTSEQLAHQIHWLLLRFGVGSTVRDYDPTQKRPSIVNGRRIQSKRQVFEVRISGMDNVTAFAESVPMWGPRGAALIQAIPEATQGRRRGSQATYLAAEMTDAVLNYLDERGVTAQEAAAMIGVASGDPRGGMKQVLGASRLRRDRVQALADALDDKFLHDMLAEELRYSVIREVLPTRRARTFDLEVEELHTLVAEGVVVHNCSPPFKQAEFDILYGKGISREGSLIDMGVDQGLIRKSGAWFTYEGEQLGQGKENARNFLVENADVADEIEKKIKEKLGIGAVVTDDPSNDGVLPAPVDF

[2] = target: T3, Replicative DNA helicase DnaB (Mycobacterium tuberculosis, UniProt P9WMR3); test: DnaB intein splicing inhibitors, dose response, biochemical, cell-free fluorescence (AID 449749)
T3 sequence (P9WMR3 whole entry): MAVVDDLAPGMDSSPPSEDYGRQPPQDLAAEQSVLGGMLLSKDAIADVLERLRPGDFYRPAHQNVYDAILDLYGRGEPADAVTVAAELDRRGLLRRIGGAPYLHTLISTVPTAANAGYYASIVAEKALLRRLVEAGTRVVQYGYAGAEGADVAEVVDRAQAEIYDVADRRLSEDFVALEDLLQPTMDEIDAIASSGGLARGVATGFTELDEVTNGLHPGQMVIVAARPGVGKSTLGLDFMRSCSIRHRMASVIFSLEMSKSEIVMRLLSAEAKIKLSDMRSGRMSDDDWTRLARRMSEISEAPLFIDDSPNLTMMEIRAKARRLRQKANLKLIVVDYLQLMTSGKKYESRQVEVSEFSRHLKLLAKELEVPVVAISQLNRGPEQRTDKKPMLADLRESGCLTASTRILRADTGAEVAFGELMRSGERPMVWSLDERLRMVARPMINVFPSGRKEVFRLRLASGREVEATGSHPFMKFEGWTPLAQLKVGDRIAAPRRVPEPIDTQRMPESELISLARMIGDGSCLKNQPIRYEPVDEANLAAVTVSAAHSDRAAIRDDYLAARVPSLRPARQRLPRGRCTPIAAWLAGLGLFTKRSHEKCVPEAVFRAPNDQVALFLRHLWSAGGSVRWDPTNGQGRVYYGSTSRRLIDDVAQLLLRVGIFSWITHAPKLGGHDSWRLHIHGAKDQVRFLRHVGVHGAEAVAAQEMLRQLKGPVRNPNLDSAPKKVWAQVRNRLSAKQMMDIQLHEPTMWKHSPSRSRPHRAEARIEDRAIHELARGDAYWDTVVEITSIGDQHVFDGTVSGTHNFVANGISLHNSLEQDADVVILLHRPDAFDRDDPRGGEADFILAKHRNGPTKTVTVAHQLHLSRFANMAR

[3] = target: Photoreceptor-specific nuclear receptor (Homo sapiens, UniProt Q9Y5X4);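 also: potency for compounds that break the NR2E3 corepressor complex and count as activators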
Chain of Photoreceptor-specific nuclear receptor (Q9Y5X4 whole entry): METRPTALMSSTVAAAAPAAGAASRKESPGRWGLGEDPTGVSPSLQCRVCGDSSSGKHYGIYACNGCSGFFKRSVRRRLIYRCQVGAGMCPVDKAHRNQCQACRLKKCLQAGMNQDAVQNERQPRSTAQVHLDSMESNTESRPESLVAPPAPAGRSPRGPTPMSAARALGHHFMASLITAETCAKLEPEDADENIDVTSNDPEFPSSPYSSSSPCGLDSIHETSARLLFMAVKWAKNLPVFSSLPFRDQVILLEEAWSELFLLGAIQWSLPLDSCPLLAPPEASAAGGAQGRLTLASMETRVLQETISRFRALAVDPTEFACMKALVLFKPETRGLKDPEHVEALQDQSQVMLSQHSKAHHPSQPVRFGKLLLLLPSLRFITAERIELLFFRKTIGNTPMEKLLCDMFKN

[4] = target: Platelet-derived growth factor receptor alpha (Homo sapiens, UniProt P16234); test: Navigating the Kinome. Panel member name: PDGFRA
Chain of Platelet-derived growth factor receptor alpha (P16234 whole entry): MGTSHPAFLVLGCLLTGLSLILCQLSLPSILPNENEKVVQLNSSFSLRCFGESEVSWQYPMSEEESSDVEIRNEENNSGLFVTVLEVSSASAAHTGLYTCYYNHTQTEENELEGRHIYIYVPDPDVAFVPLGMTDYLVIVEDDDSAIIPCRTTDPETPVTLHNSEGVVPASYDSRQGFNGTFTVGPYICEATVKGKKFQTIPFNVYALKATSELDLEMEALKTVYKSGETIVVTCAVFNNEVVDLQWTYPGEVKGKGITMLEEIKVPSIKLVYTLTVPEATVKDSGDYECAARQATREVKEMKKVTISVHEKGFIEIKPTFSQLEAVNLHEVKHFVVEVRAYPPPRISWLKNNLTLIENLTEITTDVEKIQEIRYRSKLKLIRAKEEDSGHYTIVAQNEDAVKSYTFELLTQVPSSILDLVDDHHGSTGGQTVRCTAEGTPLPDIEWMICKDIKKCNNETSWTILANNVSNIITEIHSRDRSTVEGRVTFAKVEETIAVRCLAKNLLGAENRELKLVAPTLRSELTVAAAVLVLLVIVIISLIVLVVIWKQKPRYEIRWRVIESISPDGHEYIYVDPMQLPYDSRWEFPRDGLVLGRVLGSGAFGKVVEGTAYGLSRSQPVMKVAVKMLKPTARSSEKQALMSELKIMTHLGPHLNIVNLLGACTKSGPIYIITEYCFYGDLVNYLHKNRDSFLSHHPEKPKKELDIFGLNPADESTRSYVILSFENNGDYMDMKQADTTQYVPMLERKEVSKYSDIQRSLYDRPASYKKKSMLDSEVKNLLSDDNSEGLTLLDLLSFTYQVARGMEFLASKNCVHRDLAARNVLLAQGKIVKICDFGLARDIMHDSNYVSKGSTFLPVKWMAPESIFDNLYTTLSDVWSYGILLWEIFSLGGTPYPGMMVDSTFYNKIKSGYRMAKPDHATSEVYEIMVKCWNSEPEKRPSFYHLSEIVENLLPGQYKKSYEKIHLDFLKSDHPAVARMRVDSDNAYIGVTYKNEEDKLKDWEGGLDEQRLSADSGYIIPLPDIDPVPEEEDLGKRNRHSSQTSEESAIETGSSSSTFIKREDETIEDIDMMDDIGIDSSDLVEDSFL

[5] = target: Tyrosine-protein kinase receptor TYRO3 (Homo sapiens, UniProt Q06418);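 also: TYRO3 value obtained as one member of a kinome-wide profiling panel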
Chain of Tyrosine-protein kinase receptor TYRO3 (Q06418 whole entry): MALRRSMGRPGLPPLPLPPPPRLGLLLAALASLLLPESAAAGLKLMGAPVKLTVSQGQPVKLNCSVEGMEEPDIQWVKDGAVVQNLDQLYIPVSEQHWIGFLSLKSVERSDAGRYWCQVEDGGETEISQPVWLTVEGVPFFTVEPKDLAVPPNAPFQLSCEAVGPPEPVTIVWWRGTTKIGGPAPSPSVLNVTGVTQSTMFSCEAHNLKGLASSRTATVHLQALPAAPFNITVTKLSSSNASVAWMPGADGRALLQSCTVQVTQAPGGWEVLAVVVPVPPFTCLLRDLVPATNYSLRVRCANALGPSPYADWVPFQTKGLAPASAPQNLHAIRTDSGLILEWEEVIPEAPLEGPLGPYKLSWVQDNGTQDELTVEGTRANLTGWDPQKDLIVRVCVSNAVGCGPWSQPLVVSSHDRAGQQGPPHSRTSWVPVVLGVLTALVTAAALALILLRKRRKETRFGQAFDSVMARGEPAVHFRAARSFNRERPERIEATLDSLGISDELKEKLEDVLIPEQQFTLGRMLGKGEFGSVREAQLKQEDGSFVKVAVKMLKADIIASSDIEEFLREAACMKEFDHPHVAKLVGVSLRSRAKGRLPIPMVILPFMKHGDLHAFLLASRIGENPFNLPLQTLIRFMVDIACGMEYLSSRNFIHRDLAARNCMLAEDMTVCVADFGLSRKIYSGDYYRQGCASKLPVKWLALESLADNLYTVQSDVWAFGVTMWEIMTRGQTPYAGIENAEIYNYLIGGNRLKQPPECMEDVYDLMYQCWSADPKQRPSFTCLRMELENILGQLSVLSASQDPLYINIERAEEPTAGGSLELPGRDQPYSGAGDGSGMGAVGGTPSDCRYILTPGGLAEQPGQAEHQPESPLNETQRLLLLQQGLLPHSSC

[6] = target: Mitogen-activated protein kinase 14 (Homo sapiens, UniProt Q16539);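 also: part of a kinome-wide panel, MAPK14 entry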
Chain of Mitogen-activated protein kinase 14 (Q16539 whole entry): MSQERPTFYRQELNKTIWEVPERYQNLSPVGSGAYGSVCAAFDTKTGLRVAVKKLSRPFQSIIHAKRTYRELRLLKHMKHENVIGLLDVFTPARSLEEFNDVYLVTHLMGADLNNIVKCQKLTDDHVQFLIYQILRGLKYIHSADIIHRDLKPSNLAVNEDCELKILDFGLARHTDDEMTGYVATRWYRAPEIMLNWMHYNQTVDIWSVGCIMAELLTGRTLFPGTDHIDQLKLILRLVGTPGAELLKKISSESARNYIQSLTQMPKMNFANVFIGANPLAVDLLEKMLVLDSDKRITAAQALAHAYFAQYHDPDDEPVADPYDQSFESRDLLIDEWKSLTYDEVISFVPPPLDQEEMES

[7] = target: cAMP-dependent protein kinase catalytic subunit alpha (Homo sapiens, UniProt P17612)
[8] = target: T4, Calpain-2 catalytic subunit (Sus scrofa, UniProt P43367); test: pig calpain II inhibitor potency, dose response, biochemical, fluorogenic peptide substrate (AID 1420)
T4 sequence (P43367 whole entry): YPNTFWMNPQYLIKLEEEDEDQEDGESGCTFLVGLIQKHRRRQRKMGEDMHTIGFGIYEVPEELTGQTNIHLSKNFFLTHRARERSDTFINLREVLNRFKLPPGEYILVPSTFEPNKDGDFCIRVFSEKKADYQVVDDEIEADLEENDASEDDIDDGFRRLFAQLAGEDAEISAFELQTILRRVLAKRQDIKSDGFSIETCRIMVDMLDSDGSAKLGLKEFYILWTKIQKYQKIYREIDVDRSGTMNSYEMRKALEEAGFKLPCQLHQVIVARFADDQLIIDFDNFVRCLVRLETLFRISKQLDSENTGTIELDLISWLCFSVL

[9] = NIH-3T3 fibroblast cytotoxicity, dose response, cytotoxicity control, cell-based, fluorescence, Alamar Blue, secondary assay (AID 2327);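 also: NIH-3T3 mouse fibroblasts cultured with fluconazole at 8 µg/mL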

SMILES | AC50 [1] | IC50 (Cysteine protease ATG4B) | EC50 (Protein RecA) | AC50 [2] | IC50 [3] | Ki [4] | Ki [5] | Ki [6] | Ki [7] | IC50 [8] | EC50 [9]
O=C1C=C(N2CCOCC2)c2ccccc2C1=O | 7.16 µM (active) | 7.07 µM (active) | 0.15 µM (active) | 1.05 µM (active) | > 39.8 µM (not active) | – | – | – | – | – | –
N#Cc1ccc2[nH]c(O)c(-c3ccc(CN4CCOCC4)cn3)c2c1 [AZD-1080] | – | – | – | – | – | > 2.51 µM (inactive) | > 2.51 µM (inactive) | > 3.98 µM (inactive) | > 3.16 µM (inactive) | – | –
CCc1oc2ccccc2c1C(=O)c1cc(Br)c(O)c(Br)c1 [BENZBROMARONE] | – | – | 11.5 µM (active) | 2.75 µM (active) | > 39.8 µM (not active) | – | – | – | – | 7.97 µM (not active) and 4.88 µM (not active) | > 160 µM (inactive)
